One series concerns E. coli (QA-11.3). The series can be described thus: MIC broth microdilution, E. coli QA-11.3. The class given is cell-based. The note with it: Escherichia coli, 20 h; read-out: MIC E. coli (QA-11.3). On the procedure:
(§1) Antimicrobial testing was carried out by the broth microdilution method in 96-well plate format following the Clinical and Laboratory Standards Institute (CLSI) guidelines and European Committee on Antimicrobial Susceptibility Testing (EUCAST) recommendations. Bacterial suspension of specific bacterial strain equivalent to 0.5 McFarland turbidity standard was diluted with cation-adjusted Mueller Hinton broth with TES (Thermo Fisher Diagnostic, Landsmeer, The Netherlands), to obtain a final inoculum of 10^5 CFU/mL. Compounds dissolved in DMSO and inoculum were mixed together and incubated for 18–20 h at 35 °C. Suspensions of Mycobacterium sp. were prepared into a tube of Middelbrook 7H9 broth supplemented with 5% OADC (Thermo Scientific, Trek Diagnostic Systems, West Sussex, UK) and incubated for at least 10 days. After incubation the minimal inhibitory concentration (MIC) values were determined by visual inspection as the lowest dilution of compounds showing no turbidity. Tetracycline was used as a positive control on every assay plate.
(In general: In broth dilution the organism is exposed to a series of concentrations in liquid medium.)

Another series deals with M. avium. The series can be described thus: MIC, M. avium. In kind it is cell-based. The note with it: Mycobacterium avium; read-out: MIC M. avium. The procedure: as §1
A further series relates to MRSA (QA-11.7). The series can be described thus: MIC broth microdilution, MRSA QA-11.7. The class given is cell-based, methicillin-resistant S. aureus. As to conditions: Staphylococcus aureus, 20 h, read-out: MIC MRSA (QA-11.7). On the procedure: as §1
The nature of the next series: in vitro. The note with it: PAMPA. On the procedure:
(§2) Prior to the measurements of solubility and permeability isocratic HPLC methods were developed. […] The individual method parameters for each compound are given in the Supplementary Materials Table S1.
A 96-well precoated three-layer PAMPA plates (Corning® Gentest™ Pre-coated PAMPA Plate System, Corning, NY, USA) were used according to the manufacturer’s instructions and as described previously with 300 µL of the donor solutions in the bottom compartment and 200 µL of the acceptor solution (pH 7.4 PBS) in the upper compartment at 37 °C and a 4-h incubation time. The initial and end donor solutions were injected at a 5 µL injection volume. The initial donor solutions were also diluted 100-fold and injected at a 100 µL injection volume to serve as external references for the end acceptor solutions which were injected at the same injection volume. The permeability calculations were made with a manufacturer-provided Excel spreadsheet directly from the measured peak areas accounting for the relevant dilutions and injection volumes.

Series [1] has as its system S. alachua RDK 030c (QA-1482/04). The series can be described thus: MIC broth microdilution, S. alachua. In kind it is cell-based. The note with it: Salmonella; read-out: MIC S. alachua RDK 030c (QA-1482/04). On the procedure:
as §1

In series [2] the test system is C. jejuni RDK 135 (ATCC 33560). The series can be described thus: MIC broth microdilution, C. jejuni. The class given is cell-based. As to conditions: Campylobacter jejuni, ATCC33560; read-out: MIC C. jejuni RDK 135 (ATCC 33560). The procedure:
as §1

In series [3] the test system is S. agalactiae RDK 047 (QA-990/02). The series can be described thus: MIC broth microdilution, S. agalactiae. The class given is cell-based. The note with it: Streptococcus agalactiae; read-out: MIC S. agalactiae RDK 047 (QA-990/02). The procedure:
as §1

The subject of the next series is E. coli N43 (CGSC# 5583). The series can be described thus: MIC broth microdilution, E. coli N43. In kind it is cell-based. The note with it: for MIC: Escherichia coli. The procedure:
as §1

For the next series, the system named is M. smegmatis. The series can be described thus: MIC, M. smegmatis. The class given is cell-based, Mycobacterium smegmatis. On the procedure:
as §1

The test system of series [4] is P. aeruginosa RDK 184 (DSM 939). The series can be described thus: MIC broth microdilution, P. aeruginosa. In kind it is cell-based. The note with it: Pseudomonas aeruginosa, DSM939; read-out: MIC P. aeruginosa RDK 184 (DSM 939). On the procedure: as §1
The subject of the next series is MRSA. The series can be described thus: MIC broth microdilution, MRSA. The note with it: Staphylococcus aureus, read-out: MIC MRSA. The class given is cell-based, methicillin-resistant S. aureus. On the procedure:
as §1

A further series has as its system MRSA (QA-11.6). The series can be described thus: MIC broth microdilution, MRSA QA-11.6. The class given is cell-based, methicillin-resistant S. aureus. The note with it: Staphylococcus aureus, resistant to cefoxitin, gentamicin, sulfamethoxazole, tetracycline, read-out: MIC MRSA (QA-11.6). On the procedure:
as §1

Series [5] relates to E. faecalis DRK 057 (ATCC 29212). The series can be described thus: MIC broth microdilution, E. faecalis. In kind it is cell-based. The note with it: Enterococcus faecalis, ATCC29212; read-out: MIC E. faecalis DRK 057 (ATCC 29212). On the procedure:
as §1

For another series, the system named is S. pneumoniae (QA-10/02). The series can be described thus: MIC broth microdilution, S. pneumoniae. In kind it is cell-based. As to conditions: Streptococcus pneumoniae. The procedure:
as §1

Series [6] in a line: Equilibrium solubility at pH 6.8. As to conditions: phosphate buffered saline, 37 °C, pH 6.8, aqueous buffer, thermodynamic from solid. On the procedure:
as §2
The vials were then placed in a homogenizer (Next Advance Bullet Blender, Troy, NY, USA) for 5 min ad speed setting “2” after which they were kept in a thermostated shaker (Tehtnica HeatMix, Domel, Slovenia) at 37 °C and 1200 RPM for 24 h. […] Twenty µL of these solutions were injected for the HPLC analysis by the described methods (Supplementary Materials Table S1). External standards for calibration were made in a mobile phase with 5% acetonitrile in a range of 30–90 mg/L and injected at 20 µL injection volumes.

The subject of series [7] is A. baumannii 8C6 (GES-14). The series can be described thus: MIC broth microdilution, A. baumannii. In kind it is cell-based. The note with it: Acinetobacter baumannii; read-out: MIC A. baumannii 8C6 (GES-14). On the procedure: as §1
The test system of the next series is E. coli D22. The series can be described thus: MIC broth microdilution, E. coli D22. In kind it is cell-based. The note with it: Escherichia coli. On the procedure: as §1
Another series addresses T1, E. coli DNA gyrase (Escherichia coli, UniProt P0AES4).
T1 construct: purchased Inspiralis (Norwich, UK)
The series can be described thus: Gyrase Supercoiling High Throughput Plate assay, E. coli. The class given is biochemical. The procedure: (§3) A Gyrase Supercoiling High Throughput Plate assay kit, purchased from Inspiralis (Norwich. UK) was used to determine IC50 values of compounds on S. aureus and E. coli. […] Biotinylated oligonucleotide in wash buffer was immobilized onto the wells, and the excess oligonucleotide was washed off with wash buffer and ultrapure water. […] The reactions were stopped by adding the TF buffer (50 mM NaOAc (pH 4.7), 50 mM NaCl, and 50 mM MgCl2) to allow the triplex formation (biotin-oligonucleotide-plasmid) for additional 30 min. Afterward, the unbound plasmid was washed off using TF buffer, and the solution of Promega Diamond dye in T10 buffer (10 mM Tris-HCl (pH 8.0), 1 mM EDTA) was added. […] IC50 value represents the mean of two to four independent measurements.

In the next series the target is T2, S. aureus DNA gyrase (Staphylococcus aureus, UniProt P20831).
T2 construct: purchased Inspiralis (Norwich, UK)
T2 sequence (P20831 whole entry): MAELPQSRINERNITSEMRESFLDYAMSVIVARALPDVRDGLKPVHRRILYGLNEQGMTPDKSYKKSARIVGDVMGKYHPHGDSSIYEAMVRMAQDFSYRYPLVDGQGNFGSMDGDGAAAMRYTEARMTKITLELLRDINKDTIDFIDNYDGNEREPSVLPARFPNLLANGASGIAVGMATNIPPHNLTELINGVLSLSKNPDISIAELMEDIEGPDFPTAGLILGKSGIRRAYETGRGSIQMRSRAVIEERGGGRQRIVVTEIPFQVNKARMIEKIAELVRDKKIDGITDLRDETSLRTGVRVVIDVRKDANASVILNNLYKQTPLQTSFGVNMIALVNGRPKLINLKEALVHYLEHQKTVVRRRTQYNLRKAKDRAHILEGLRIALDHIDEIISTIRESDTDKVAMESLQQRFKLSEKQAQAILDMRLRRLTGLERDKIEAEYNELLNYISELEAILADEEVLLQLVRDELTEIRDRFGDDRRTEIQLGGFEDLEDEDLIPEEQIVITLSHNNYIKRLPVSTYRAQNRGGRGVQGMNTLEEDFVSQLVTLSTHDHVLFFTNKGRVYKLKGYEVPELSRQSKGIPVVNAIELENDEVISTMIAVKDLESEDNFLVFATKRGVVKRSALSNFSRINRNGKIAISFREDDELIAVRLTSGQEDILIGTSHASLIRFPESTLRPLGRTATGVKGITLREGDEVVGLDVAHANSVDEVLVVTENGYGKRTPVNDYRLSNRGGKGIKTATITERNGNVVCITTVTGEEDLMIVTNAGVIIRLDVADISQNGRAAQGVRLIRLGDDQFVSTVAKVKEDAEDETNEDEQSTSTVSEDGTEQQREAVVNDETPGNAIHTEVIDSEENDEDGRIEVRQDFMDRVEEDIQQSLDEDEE
T2 sequence (P0A0K8 whole entry partner): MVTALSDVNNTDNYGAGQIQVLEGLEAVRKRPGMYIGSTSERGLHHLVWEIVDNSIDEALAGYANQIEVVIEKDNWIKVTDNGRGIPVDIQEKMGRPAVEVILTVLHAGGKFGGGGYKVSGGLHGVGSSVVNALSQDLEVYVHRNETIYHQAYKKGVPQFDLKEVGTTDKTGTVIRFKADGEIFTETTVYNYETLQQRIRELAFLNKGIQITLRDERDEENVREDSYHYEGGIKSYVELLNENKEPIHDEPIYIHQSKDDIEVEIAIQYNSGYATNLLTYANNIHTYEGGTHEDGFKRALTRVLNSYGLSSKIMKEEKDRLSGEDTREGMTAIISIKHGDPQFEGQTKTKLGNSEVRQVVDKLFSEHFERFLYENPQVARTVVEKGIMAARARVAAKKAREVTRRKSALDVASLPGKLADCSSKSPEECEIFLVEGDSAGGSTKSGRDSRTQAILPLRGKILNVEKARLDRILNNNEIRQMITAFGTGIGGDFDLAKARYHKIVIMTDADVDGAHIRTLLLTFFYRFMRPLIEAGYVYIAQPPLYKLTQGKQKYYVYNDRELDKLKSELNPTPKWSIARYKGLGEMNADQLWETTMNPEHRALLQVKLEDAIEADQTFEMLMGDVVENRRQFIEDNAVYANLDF
The series can be described thus: biochemical. In kind it is biochemical. As to conditions: LE = (1.37/HA) × pIC50. The procedure: as §3

Setting [8] is: read-out: E. coli N43 MIC in molar.
The mark [9] stands for this setting: read-out: MIC E. coli N43 (CGSC# 5583).
[10] abbreviates: Mycolicibacterium smegmatis; read-out: MIC M. smegmatis.

Values after ≈ are worked out from the molar mass of the structure shown. Read-outs that look alike come from different tables or passages of the source.

T1 sequence (P0AES4 whole entry): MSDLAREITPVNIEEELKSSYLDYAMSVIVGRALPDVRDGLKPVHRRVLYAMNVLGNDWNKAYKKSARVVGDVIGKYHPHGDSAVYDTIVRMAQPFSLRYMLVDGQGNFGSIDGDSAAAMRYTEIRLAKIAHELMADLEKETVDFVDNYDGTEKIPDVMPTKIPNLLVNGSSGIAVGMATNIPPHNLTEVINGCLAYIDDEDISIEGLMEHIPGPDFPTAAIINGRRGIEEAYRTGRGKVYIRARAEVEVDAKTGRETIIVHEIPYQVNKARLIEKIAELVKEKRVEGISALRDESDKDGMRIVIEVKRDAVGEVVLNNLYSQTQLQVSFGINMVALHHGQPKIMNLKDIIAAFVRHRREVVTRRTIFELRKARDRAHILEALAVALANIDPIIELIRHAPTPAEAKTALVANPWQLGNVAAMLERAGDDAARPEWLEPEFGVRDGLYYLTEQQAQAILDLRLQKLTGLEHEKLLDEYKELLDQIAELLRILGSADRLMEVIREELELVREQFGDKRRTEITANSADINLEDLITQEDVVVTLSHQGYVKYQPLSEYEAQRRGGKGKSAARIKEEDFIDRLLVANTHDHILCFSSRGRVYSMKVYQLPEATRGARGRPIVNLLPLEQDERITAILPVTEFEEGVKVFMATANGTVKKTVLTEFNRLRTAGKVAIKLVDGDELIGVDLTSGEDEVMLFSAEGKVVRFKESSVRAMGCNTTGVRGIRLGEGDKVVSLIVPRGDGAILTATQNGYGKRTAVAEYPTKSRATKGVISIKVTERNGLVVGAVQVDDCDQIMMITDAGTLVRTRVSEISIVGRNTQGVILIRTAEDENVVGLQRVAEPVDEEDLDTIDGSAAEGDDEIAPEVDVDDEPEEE

A word on the Papp: it is a coefficient for how fast a substance crosses the barrier. The low end stands for poor permeation, the high end for ready permeation. Broadly, the solubility (thermodynamic) is solubility found after equilibrating the solid with the medium. Take `COc1ccc2nccc(CCN3CCC(NCc4ccc(Br)cc4)CC3)c2n1` [Compound 14]: the MIC in the series with E. coli (QA-11.3) stood at 1 µg/mL (≈ 2.2 µM); in the series with M. avium it was 2 µg/mL (≈ 4.39 µM); in the series with MRSA (QA-11.7), 0.0625 µg/mL (≈ 0.137 µM); in series [1], 16 µg/mL (≈ 35.1 µM); in series [2], 0.5 µg/mL (≈ 1.1 µM); in series [3] it was 0.5 µg/mL (≈ 1.1 µM). Besides, the MIC with E. coli N43 (CGSC# 5583) (setting [8]) stood at 0.27 µM; in the series on E. coli N43 (CGSC# 5583) (setting [9]) it was 0.125 µg/mL; with M. smegmatis (Mycolicibacterium smegmatis, read-out: MIC M. smegmatis), 0.125 µg/mL (≈ 0.274 µM); in series [4] it was 128 µg/mL (≈ 281 µM); with MRSA, 0.062 µg/mL (≈ 0.136 µM); in the series with MRSA (QA-11.6) it was 0.0625 µg/mL (≈ 0.137 µM). For the same compound, the MIC amounted to 1 µg/mL (≈ 2.2 µM) in [5]; 0.125 µg/mL (≈ 0.274 µM) against S. pneumoniae (QA-10/02); 1 µg/mL (≈ 2.2 µM) in series [7]; 0.125 µg/mL (≈ 0.274 µM) in the series with E. coli D22 (D22, read-out: MIC E. coli D22). Moreover, the Papp at 4 h in the series “in vitro” was over 2.7 ×10⁻⁶ cm/s; in the series “in vitro” (pH 7.4), 31.5 ×10⁻⁶ cm/s. In [6], this compound returned a thermodynamic solubility at 24 h of 72 µg/mL (≈ 158 µM).

Regarding `COc1ccc2nccc(CCN3CCC(NCc4ccc(I)cc4)CC3)c2n1` [Compound 15], the MIC with E. coli (QA-11.3) is 1 µg/mL (≈ 1.99 µM); with M. avium, 1 µg/mL (≈ 1.99 µM); in the series on MRSA (QA-11.7), 0.0078 µg/mL (≈ 0.0155 µM); in series [1], 8 µg/mL (≈ 15.9 µM); in series [2], 0.015 µg/mL (≈ 0.0299 µM); in [3] it was 0.125 µg/mL (≈ 0.249 µM). In addition, the MIC with E. coli N43 (CGSC# 5583) (setting [8]) came out at 0.16 µM; in the series on E. coli N43 (CGSC# 5583) (setting [9]), 0.078 µg/mL; with M. smegmatis (setting [10]), 0.015 µg/mL (≈ 0.0299 µM); in series [4], 32 µg/mL (≈ 63.7 µM); in the series with MRSA, 0.0078 µg/mL (≈ 0.0155 µM); with MRSA (QA-11.6), 0.0312 µg/mL (≈ 0.0622 µM). The MIC was found to be 1 µg/mL (≈ 1.99 µM) in [5]; 0.015 µg/mL (≈ 0.0299 µM) against S. pneumoniae (QA-10/02); 0.25 µg/mL (≈ 0.498 µM) in [7]; 0.125 µg/mL (≈ 0.249 µM) in the series on E. coli D22 (D22, read-out: MIC E. coli D22). Also, the figures for the Papp at 4 h in “in vitro” and in the series “in vitro” (pH 7.4) were over 2.7 ×10⁻⁶ cm/s and 39.8 ×10⁻⁶ cm/s, respectively. In addition, the “E. coli N43 MIC in molar” value with E. coli N43 (CGSC# 5583) (E. coli CGSC# 5583, AcrA knockout strain) was 0.16 µM. In series [6], the thermodynamic solubility at 24 h stood at 184 µg/mL (≈ 366 µM).

A word on the IC50: it is the concentration that gives 50% inhibition. Low readings indicate greater potency, high ones weaker potency. As to `COc1ccc2nccc(CCN3CCC(NCc4ccc(N(C)C)cc4)CC3)c2n1` [Compound 18], the MIC in the series on E. coli (QA-11.3) was 8 µg/mL (≈ 19.1 µM); with M. avium it was 128 µg/mL (≈ 305 µM); in the series on MRSA (QA-11.7), 0.5 µg/mL (≈ 1.19 µM); in series [1], 128 µg/mL (≈ 305 µM); in series [2], 4 µg/mL (≈ 9.53 µM); in [3], 0.25 µg/mL (≈ 0.596 µM). Further, the MIC is 2.45 µM with E. coli N43 (CGSC# 5583) (setting [8]); 1 µg/mL with E. coli N43 (CGSC# 5583) (setting [9]); 4 µg/mL (≈ 9.53 µM) with M. smegmatis (setting [10]); over 128 µg/mL in series [4]; 0.25 µg/mL (≈ 0.596 µM) in the series on MRSA (QA-11.6); 1 µg/mL (≈ 2.38 µM) in series [5]. In addition, the MIC against S. pneumoniae (QA-10/02) came out at 0.25 µg/mL (≈ 0.596 µM); in series [7], 8 µg/mL (≈ 19.1 µM); in the series with E. coli D22 (D22, mutation in the lpxC gene that increases membrane permeability, read-out: MIC E. coli D22), 8 µg/mL (≈ 19.1 µM). This compound also came in with an IC50 on E. coli DNA gyrase of 11.9 ± 0.83 µM. The “LE DNA Gyrase E. coli” value at E. coli DNA gyrase (LE = (1.37/HA) × pIC50) is 0.22. For the same compound, the Papp at 4 h in the series “in vitro” is over 2.7 ×10⁻⁶ cm/s; in the series “in vitro” (pH 7.4) it was 16.7 ×10⁻⁶ cm/s. Also, the “LE DNA Gyrase S. aureus” value on S. aureus DNA gyrase came out at 0.32. This compound showed a thermodynamic solubility at 24 h in series [6] of 537 µg/mL (≈ 1280 µM).

(Values after paper PMC8300687, “A Fine-Tuned Lipophilicity/Hydrophilicity Ratio Governs Antibacterial Potency and Selectivity of Bifurcated Halogen Bond-Forming NBTIs” (Antibiotics, 2021).)
